Reference: paper PMC11365428 (The Journal of Biological Chemistry, 2024)
In brackets after ≈: the same amount, converted by molar mass. Like-named read-outs stand apart in the source and are kept apart here. Non-standard residues stand in square brackets, D forms with d. Residues, ends and D or L forms follow the SMILES beside them. No end group written: not given here. pGlu = O=C1CC[C@@H](C(=O)O)N1

T1: apTKRPR-A (Aplysia californica, UniProt A0AAU7SSZ1)
T1 sequence (A0AAU7SSZ1 1-398): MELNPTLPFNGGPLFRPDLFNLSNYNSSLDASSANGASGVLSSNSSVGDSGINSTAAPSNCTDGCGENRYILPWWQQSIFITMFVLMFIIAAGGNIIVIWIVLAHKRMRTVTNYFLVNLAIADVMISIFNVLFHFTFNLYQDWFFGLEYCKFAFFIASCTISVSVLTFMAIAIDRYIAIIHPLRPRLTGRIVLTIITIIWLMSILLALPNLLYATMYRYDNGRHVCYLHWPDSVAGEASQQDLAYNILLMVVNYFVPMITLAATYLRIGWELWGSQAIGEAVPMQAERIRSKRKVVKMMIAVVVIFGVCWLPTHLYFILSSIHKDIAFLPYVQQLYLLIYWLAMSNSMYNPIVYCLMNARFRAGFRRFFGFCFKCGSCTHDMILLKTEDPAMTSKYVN

T2: apTKRPR-B (Aplysia californica, UniProt A0AAU7STS1)
T2 sequence (A0AAU7STS1 1-447): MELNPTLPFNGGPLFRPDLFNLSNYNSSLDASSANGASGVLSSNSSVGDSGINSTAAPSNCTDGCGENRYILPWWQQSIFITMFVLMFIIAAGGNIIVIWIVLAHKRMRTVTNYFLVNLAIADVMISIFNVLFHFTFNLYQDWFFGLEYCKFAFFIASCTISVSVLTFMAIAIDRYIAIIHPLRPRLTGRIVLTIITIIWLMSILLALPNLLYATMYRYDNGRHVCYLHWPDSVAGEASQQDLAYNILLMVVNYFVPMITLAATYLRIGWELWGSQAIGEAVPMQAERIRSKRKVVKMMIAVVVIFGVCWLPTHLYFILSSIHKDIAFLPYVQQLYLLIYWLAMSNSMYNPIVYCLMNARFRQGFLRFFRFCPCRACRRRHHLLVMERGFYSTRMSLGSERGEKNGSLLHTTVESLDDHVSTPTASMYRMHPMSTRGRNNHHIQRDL

B1: apTKRP-2b analog with Leu instead of Gly at position eight (peptide)
peptide: [pGlu]PHLGFHLSR-NH2
SMILES: CC(C)C[C@H](NC(=O)[C@H](Cc1c[nH]cn1)NC(=O)[C@@H]1CCCN1C(=O)[C@@H]1CCC(=O)N1)C(=O)NCC(=O)N[C@@H](Cc1ccccc1)C(=O)N[C@@H](Cc1c[nH]cn1)C(=O)N[C@@H](CC(C)C)C(=O)N[C@@H](CO)C(=O)N[C@@H](CCCNC(=N)N)C(N)=O
B2: apTKRP-2b analog with Lys instead of Gly at position eight (peptide)
peptide: [pGlu]PHLGFHKSR-NH2
SMILES: CC(C)C[C@H](NC(=O)[C@H](Cc1c[nH]cn1)NC(=O)[C@@H]1CCCN1C(=O)[C@@H]1CCC(=O)N1)C(=O)NCC(=O)N[C@@H](Cc1ccccc1)C(=O)N[C@@H](Cc1c[nH]cn1)C(=O)N[C@@H](CCCCN)C(=O)N[C@@H](CO)C(=O)N[C@@H](CCCNC(=N)N)C(N)=O
B3: apTKRP-2b analog with Asp instead of Gly at position eight (peptide)
peptide: [pGlu]PHLGFHDSR-NH2
SMILES: CC(C)C[C@H](NC(=O)[C@H](Cc1c[nH]cn1)NC(=O)[C@@H]1CCCN1C(=O)[C@@H]1CCC(=O)N1)C(=O)NCC(=O)N[C@@H](Cc1ccccc1)C(=O)N[C@@H](Cc1c[nH]cn1)C(=O)N[C@@H](CC(=O)O)C(=O)N[C@@H](CO)C(=O)N[C@@H](CCCNC(=N)N)C(N)=O

Key:
apTKRPR-A = target: T1, apTKRPR-A; assay: IP1 accumulation assay, CHO-K1 cells transiently expressing apTKRPR-A; assay type: cell-based
Description: (§1) To express putative Aplysia receptors transiently in CHO-K1 cells, the cDNAs were subcloned into the pcDNA3.1(+) or pcDNA3.1(+)-FLAG (for ELISA experiments only, see “Cell surface expression analysis by ELISA” section) expression vector. On the day before transfection, the CHO-K1 cells were passaged into 60 mm diameter tissue culture–treated dishes, and the transfection experiments were performed when the cells were grown to 70 to 90% confluence. CHO-K1 cells were transfected with the cDNA plasmid constructs using Turbofect Transfection reagent (Thermo Fisher Scientific, R0531), following the manufacturer’s instructions. […] The DNA/TurboFect mixture dropwise was then added to the dish, and the cells were incubated at 37 °C in a humidified incubator containing 5% CO2 overnight.
(§2) On the third day, the activation of the putative receptors was detected by monitoring intracellular IP1 concentration using an IP-One Gq kit (Cisbio, 62IPAPEB) in Tecan Spark. Except for using 0.5x reagent, all other procedures were performed following the manufacturer’s instructions. IP1 accumulation assay measures the accumulation of IP1, which is hydrolyzed from the second messenger, and inositol triphosphate. Inositol triphosphate is generated by the Gαq pathway when a GPCR is activated by an appropriate ligand.

[1] = trifluoroacetate counter ion, ref ChinaPeptides Co., Ltd. certificate of analysis (Fig. S21), cited from earlier work
apTKRPR-B = target: T2, apTKRPR-B; assay: IP1 accumulation assay, CHO-K1 cells transiently expressing apTKRPR-B; assay type: cell-based
Description: as §1, §2

[2] = target: Aplysia tachykinin-related peptide receptor A (apTKRPR-A) (Aplysia californica)
[3] = target: Aplysia tachykinin-related peptide receptor B (apTKRPR-B) (Aplysia californica)
[4] = log10 of EC50 in M, negative, IP1 accumulation, CHO-K1, mean ± SD of at least three independent experiments (apTKRP-1 n = 9; apTKRP-2a n = 11; apTKRP-2b n = 19; analogs, apTKRP-2b-OH n = 4), read-out: apTKRPR-A log[EC50] (converted)
[5] = log10 of EC50 in M, negative, IP1 accumulation, CHO-K1, mean ± SD of at least three independent experiments (apTKRP-1 n = 9; apTKRP-2a n = 11; apTKRP-2b n = 19; analogs, apTKRP-2b-OH n = 4), read-out: apTKRPR-B log[EC50] (converted)

Row | Molecule | EC50 (apTKRPR-A) | Solubility ([1]; in 15%ACN/85%H2O) | EC50 (apTKRPR-B) | also measured
1 | CC(C)C[C@H](NC(=O)[C@H](Cc1c[nH]cn1)NC(=O)[C@@H]1CCCN1C(=O)[C@@H]1CCC(=O)N1)C(=O)NCC(=O)N[C@@H](Cc1ccccc1)C(=O)N[C@@H](Cc1c[nH]cn1)C(=O)N[C@@H](C)C(=O)N[C@@H](CO)C(=O)N[C@@H](CCCNC(=N)N)C(N)=O [[Ala^8]apTKRP-2b] ([pGlu]PHLGFHASR-NH2) | 20.9 nM | 1000 µg/mL (≈ 884 µM) | 3.09 nM | 
2 | CC(C)C[C@H](NC(=O)[C@H](Cc1c[nH]cn1)NC(=O)[C@@H]1CCCN1C(=O)[C@@H]1CCC(=O)N1)C(=O)NCC(=O)N[C@@H](Cc1ccccc1)C(=O)N[C@@H](Cc1c[nH]cn1)C(=O)NCC(=O)N[C@@H](C)C(=O)N[C@@H](CCCNC(=N)N)C(N)=O [[Ala^9]apTKRP-2b] ([pGlu]PHLGFHGAR-NH2) | 195 nM | 1000 µg/mL (≈ 908 µM) | 17.4 nM | 
3 | CC(C)C[C@H](NC(=O)[C@H](C)NC(=O)[C@@H]1CCCN1C(=O)[C@@H]1CCC(=O)N1)C(=O)NCC(=O)N[C@@H](Cc1ccccc1)C(=O)N[C@@H](Cc1c[nH]cn1)C(=O)NCC(=O)N[C@@H](CO)C(=O)N[C@@H](CCCNC(=N)N)C(N)=O [[Ala^3]apTKRP-2b] ([pGlu]PALGFHGSR-NH2) | 295 nM | 1000 µg/mL (≈ 951 µM) | 32.4 nM | 
4 | CC(C)C[C@H](NC(=O)[C@H](Cc1c[nH]cn1)NC(=O)[C@@H]1CCCN1C(=O)[C@@H]1CCC(=O)N1)C(=O)NCC(=O)N[C@@H](Cc1ccccc1)C(=O)N[C@@H](C)C(=O)NCC(=O)N[C@@H](CO)C(=O)N[C@@H](CCCNC(=N)N)C(N)=O [[Ala^7]apTKRP-2b] ([pGlu]PHLGFAGSR-NH2) | 1070 nM | 1000 µg/mL (≈ 951 µM) |  | 
5 | CC(C)C[C@H](NC(=O)[C@H](Cc1c[nH]cn1)NC(=O)[C@H](C)NC(=O)[C@@H]1CCC(=O)N1)C(=O)NCC(=O)N[C@@H](Cc1ccccc1)C(=O)N[C@@H](Cc1c[nH]cn1)C(=O)NCC(=O)N[C@@H](CO)C(=O)N[C@@H](CCCNC(=N)N)C(N)=O [[Ala^2]apTKRP-2b] ([pGlu]AHLGFHGSR-NH2) | 309 nM | 1000 µg/mL (≈ 916 µM) | 33.1 nM | 
6 | CC(C)C[C@H](NC(=O)[C@H](Cc1c[nH]cn1)NC(=O)[C@@H]1CCCN1C(=O)[C@@H]1CCC(=O)N1)C(=O)NCC(=O)N[C@@H](Cc1ccccc1)C(=O)N[C@@H](Cc1c[nH]cn1)C(=O)NCC(=O)N[C@@H](CO)C(=O)N[C@@H](CCCNC(=N)N)C(=O)O [apTKRP-2b-OH] ([pGlu]PHLGFHGSR-OH) |  |  |  | EC50 (apTKRPR-A; IP1 accumulation, CHO-K1, from average log[EC50], read-out: apTKRPR-A [EC50]): > 10000 nM; EC50 (apTKRPR-A; [4]): > 10000 nM; EC50 (apTKRPR-B; IP1 accumulation, CHO-K1, from average log[EC50], read-out: apTKRPR-B [EC50]): > 10000 nM; EC50 (apTKRPR-B; [5]): > 10000 nM
7 | CC(C)C[C@H](NC(=O)[C@H](Cc1c[nH]cn1)NC(=O)[C@@H]1CCCN1C(=O)[C@@H]1CCC(=O)N1)C(=O)N[C@@H](C)C(=O)N[C@@H](Cc1ccccc1)C(=O)N[C@@H](Cc1c[nH]cn1)C(=O)NCC(=O)N[C@@H](CO)C(=O)N[C@@H](CCCNC(=N)N)C(N)=O [[Ala^5]apTKRP-2b] ([pGlu]PHLAFHGSR-NH2) | 1660 nM | 1000 µg/mL (≈ 884 µM) | 537 nM | 
8 | CC(C)C[C@H](NC(=O)[C@H](Cc1c[nH]cn1)NC(=O)[C@@H]1CCCN1C(=O)[C@@H]1CCC(=O)N1)C(=O)NCC(=O)N[C@@H](Cc1ccccc1)C(=O)N[C@@H](Cc1c[nH]cn1)C(=O)NCC(=O)N[C@@H](CO)C(=O)N[C@@H](C)C(N)=O [[Ala^10]apTKRP-2b] ([pGlu]PHLGFHGSA-NH2) | > 10000 nM | 1000 µg/mL (≈ 969 µM) | > 10000 nM | 
9 | FKPSGFMGSR-NH2 [apTKRP-1] |  |  |  | EC50 (apTKRPR-A; [4]): 145 nM; EC50 (apTKRPR-B; [5]): 24.5 nM
10 | CC(C)C[C@H](NC(=O)[C@H](Cc1c[nH]cn1)NC(=O)[C@@H]1CCCN1C(=O)[C@@H]1CCC(=O)N1)C(=O)NCC(=O)N[C@@H](C)C(=O)N[C@@H](Cc1c[nH]cn1)C(=O)NCC(=O)N[C@@H](CO)C(=O)N[C@@H](CCCNC(=N)N)C(N)=O [[Ala^6]apTKRP-2b] ([pGlu]PHLGAHGSR-NH2) | 1510 nM |  | 537 nM | Solubility ([1]; in 13%ACN/87%H2O): 1000 µg/mL (≈ 960 µM)
11 | C[C@H](NC(=O)[C@H](Cc1c[nH]cn1)NC(=O)[C@@H]1CCCN1C(=O)[C@@H]1CCC(=O)N1)C(=O)NCC(=O)N[C@@H](Cc1ccccc1)C(=O)N[C@@H](Cc1c[nH]cn1)C(=O)NCC(=O)N[C@@H](CO)C(=O)N[C@@H](CCCNC(=N)N)C(N)=O [[Ala^4]apTKRP-2b] ([pGlu]PHAGFHGSR-NH2) | 9.77 nM |  | 1.7 nM | Solubility ([1]; in 13%ACN/87%H2O): 1000 µg/mL (≈ 930 µM)
12 | B1 |  |  |  | EC50 of IP1 accumulation in CHO-K1 cells expressing the receptor [2]: > 10000 nM; EC50 of IP1 accumulation in CHO-K1 cells expressing the receptor [3]: > 10000 nM
13 | B2 |  |  |  | EC50 of IP1 accumulation in CHO-K1 cells expressing the receptor [2]: > 10000 nM; EC50 of IP1 accumulation in CHO-K1 cells expressing the receptor [3]: > 10000 nM
14 | B3 |  |  |  | EC50 of IP1 accumulation in CHO-K1 cells expressing the receptor [2]: > 10000 nM; EC50 of IP1 accumulation in CHO-K1 cells expressing the receptor [3]: > 10000 nM
